Consider four compounds from patent publication US5047533A, “Acyclic purine phosphonate nucleotide analogs” (SRI International, priority 1990, dated 1991).

For data set [1], the system named is human cytomegalovirus (strain AD169). The data set can be described thus: Plaque reduction, human cytomegalovirus. It counts as cell-based. As for the experimental part: (§1) One herpes virus strain employed was Strain McCrae of type 1 herpes (thymidine kinase positive virus) (HSV-1TK^+). This strain was prepared and titered in MA-104 cells and frozen at -90° C. until use. Also used were strain HF (HSV-1TK^-). Strain E194 (HSV-2), NJB strain (MCMV), strain AD169 (HCMV).
^a 50% effective dose, determined from plot of data.
(§2) The data on acyclovir were gathered from tests run in MRC-5 cells grown under agarose overlay, with plaques read 7 days after virus exposure.

A further data set has as its system HSV-1TK+. In words: In vivo guinea pig HSV-1TK+ lesion test, topical solution. To be noted: guinea pigs; 5% solution of acyclovir; five days after treatment. As for the experimental part:
Compound 2 also was tested in vivo in guinea pigs as an agent against HSV-1TK^+. The animals were inoculated with the virus; 18 hours later Compound 2 at two concentrations (0.4% and 1-2% (saturated) solution in water) was administered, and five days later blister diameters at the point of inoculation were measured. A 5% solution of acyclovir or a 1.4% solution of poly(vinylalcohol) was used as control. Satellite lesions were measured, as well.

The nature of data set [2]: Cytotoxicity (maximum tolerated dose), control tests in 96-well microplates. It counts as cell-based. Conditions: Table 5; microscopic examination, separately run control tests; read-out: Approx. MTD (dose causing approximately 50% cytotoxic effects in cells).
Excerpt: (§3) ^b Maximum tolerated dose: That dose causing approximately 50%
(§4) cytotoxic effects in cells, determined by the microscopic examination of
(§5) cells for sloughing, shape alteration, and granularity in separately run
(§6) control tests in 96well microplates.
as §2

Data set [3] concerns HSV-1TK+ (Strain McCrae of type 1 herpes). The data set can be described thus: Inhibition of viral CPE, HSV-1TK+ in MA-104 cells. Conditions: for inhibition at 1 µg/mL: 1.0 μg/ml; for inhibition at 3.2 µg/mL: 3.2 μg/ml; for inhibition at 10 µg/mL: 10 μg/ml; for inhibition at 100 µg/mL: 100 μg/ml; for inhibition at 320 µg/mL: 320 μg/ml; for inhibition at 1000 µg/mL: 1000 μg/ml. It counts as cell-based. As for the experimental part:
as §1
(§7) Continuous passaged monkey kidney (MA-104) cells were used for testing of herpes-type virus, with growth medium consisting of Minimum Essential Medium (MEM) supplemented with 0.1% NaHCO3 and […] gentamicin.
(§8) To a 96 well microtiter plate containing an established 24 hour monolayer of cells from which the medium has been decanted was added 0.1 ml of varying (one-half log10) concentrations of test compound, which incubated on the cell 15 minutes, after which 0.1 ml of virus in a concentration of 320 cell culture 50% infectious doses (CCID50)/0.1 ml was added. The plate was covered with plastic wrap and incubated at 37° C. Included with the test were toxicity controls (each concentration of compound+test medium in place of virus), virus controls (virus+test medium in place of compound) and cell controls (test medium in place of compound and virus). The cells were examined microscopically after 72 hours for evidence of cytotoxicity and for viral cytopathic effect (CPE). Vidarabine was run on the same plate in parallel. The test compounds were added to the medium at a concentration of 2000 μg/ml for use as a positive control.
Antiviral activity was determined by observation of inhibition of viral CPE. This activity was expressed by ED50, defined as that dose range of compound causing 50% CPE inhibition.
A Virus Rating (VR) was also determined. VR is a numerical expression of antiviral activity, weighted to take into account any cytotoxicity observed, as discussed by Sidewell et al, Appl Microbiol (1971) 22:797. Generally, a VR of 0.1-0.4 indicates slight antiviral effect, 0.5-0.9 indicates moderate antiviral effect, and ≥1.0 indicates strong antiviral effect.

A further data set relates to murine CMV (NJB strain). In words: Inhibition of viral CPE, murine CMV. Type of data set: cell-based. The protocol:
as §1, §7
as §8, with “Vidarabine was run on the same plate in parallel. The test compounds were added to the medium at a concentration of 2000 μg/ml for use as a positive control.” left out
(§9) Antiviral activity was determined by observation of inhibition of viral CPE. […]
A Virus Rating (VR) was also determined. […]

Data set [4] concerns reverse transcriptase (RT) from Moloney murine leukemia virus (MMLV) or avian myeloblastosis virus (AMV). The data set can be described thus: Reverse transcriptase assay. Conditions: 8 mM concentration. Type of data set: biochemical. As for the experimental part:
For the reverse transcriptase assay, cloned reverse transcriptase (RT) (Bethesda Research Laboratories) from Moloney murine leukemia virus (MMLV) or avian myeloblastosis virus (AMV) (Seikagaku or Boehringer Mannheim) was used to direct DNA synthesis from a polyribonucleotide template and a oligodeoxynucleotide primer under reaction conditions (Houts, G. E., et al, J Virol (1979) 29:517.)
Reaction mixtures (100 μl) for the assay of MMLV RT consisted of 50 mM Tris-hydrochloride, pH 8.0, 6 mM MgCl2, 40 mM KCl, 100 μg bovine serum albumin per ml, 1 mM dithiothreitol, 0.1 mM polyadenylic acid (Pharmacia, Inc.), 0.1 mM oligo(dT)12-18 (Pharmacia, Inc.), 0.4 mM deoxythymidine triphosphate (dTTP), and 0.1 mM tritiated (93.5 Cl/mmol) dTTP (New England Nuclear). The compounds assayed were added in various concentrations and dilutions at a volume of 10 μl. Results were confirmed by duplicate assays. Dilutions were made using 10% aqueous DMSO. The total activity was measured by spotting on dry Whatman 3 mm filter disks and radioactivity was determined by liquid scintillation techniques. The assay time course was begun by adding 10 units of RT from MMLV or AMV and incubating the reaction at 37° C. […] Disks were dried under a heat lamp and the acid-insoluble product radioactivity was determined by liquid scintillation counting. […]

The next data set has as its system HIV. The data set can be described thus: Antiviral activity versus HIV in lymphoblastoid cells. To be noted: Human immunodeficiency virus 1, Lymphoblastoid cell; read-out: ED50 against HIV. It counts as cell-based. The protocol:
The compounds of the invention were evaluated in vitro as antiviral agents against herpes virus and against RNA retrovirus. Various herpes strains were used. An infected B lymphoblastoid cell line was used as HIV substrate to test antiviral activity with respect to RNA retrovirus.
To test antiviral activity versus HIV, the following procedure was used: Infectious HIV was assayed in cell culture as described originally by Barre-Sinoussi et al for isolation of LAV, except that persistently infected lymphoblastoid cells were used instead of mononuclear cells from anti-LAV negative donors. HIV obtained from cell culture was stored in liquid nitrogen in aliquots of RPMI 1640 culture medium with 20% of total calf serum and 20% glycerol and containing 1,000 TCID-50 HIV. The lymphoblastoid cells (10^6) were incubated with 1,000 TCID-50 of HIV obtained from cell cultures, and cells were then cultured in RPMI-1640 medium. Culture medium was changed every 3 days for 3 weeks and the medium for each 3-day period from Day 6 through Day 21 was assayed for viral reverse transcriptase activity by concentrating (pelleting) virus by ultracentrifugation in the 100 place Spinco 25 rotor and assaying pellets for reverse transcriptase (RT) using a ^32 P-dTTP in the presence of dimer-template poly rA-oligo dT. […]

In the next data set the test system is HSV-2 (Strain E194). In words: Inhibition of viral CPE, HSV-2. It counts as cell-based. The protocol: as §1, §7
as §8, with “The test compounds were added to the medium at a concentration of 2000 μg/ml for use as a positive control.” left out
as §9

A further data set concerns cells. In words: Cytotoxicity (maximum tolerated dose), control tests in 96-well microplates. It counts as cell-based. To be noted: overall, Table 5.
Excerpt: as §3, §4, §5, §6, §2

The mark [5] stands for this setting: MA104, read-out: CPE Inhib., Table 2.
The mark [6] stands for this setting: MA104, read-out: CPE Inhib., Table 3 Test 1.
Where [7] appears, read: MA104, read-out: CPE Inhib., Table 3 Test 2.

In brackets after ≈: the same amount, converted by molar mass. Where two headings read alike, the source gives them in different places.

On to `Nc1nc2c(ncn2COCCO)c(=O)[nH]1` [Acyclovir, 9-(2-hydroxyethoxymethyl) guanine, reference compound], for which the “No. Plaques” value in data set [1] (Experiment No. 1, 32 μg/ml) is on record as 7; in data set [1] (Experiment No. 1, 100 μg/ml) it was 1; in data set [1] (Experiment No. 2, 10 μg/ml), 20; in [1] (Experiment No. 2, 32 μg/ml), 8; in data set [1] (Experiment No. 2, 100 μg/ml), 1. In addition, the “Approx. ED50” value in data set [1] (Experiment No. 2, determined from plot of data) lay in the range of 10 to 32 µg/mL. The inhibition at 32 µg/mL in data set [1] (Human betaherpesvirus 5, AD169, Experiment No. 1, 32 μg/ml, read-out: % Reduct.) came out at 59%; in data set [1] (Human betaherpesvirus 5, AD169, Experiment No. 2, 32 μg/ml, read-out: % Reduct.) it was 64%. For the same compound, the inhibition at 100 µg/mL turned out to be 94% in [1] (Human betaherpesvirus 5, AD169, Experiment No. 1, 100 μg/ml, read-out: % Reduct.) and 96% in data set [1] (Human betaherpesvirus 5, AD169, Experiment No. 2, 100 μg/ml, read-out: % Reduct.). Further, the inhibition at 10 µg/mL in data set [1] (Human betaherpesvirus 5, AD169, Experiment No. 2, 10 μg/ml, read-out: % Reduct.) worked out at 9%. In addition, the EC50 in data set [1] (Human betaherpesvirus 5, AD169, Experiment No. 1, determined from plot of data, read-out: Approx. ED50) is 10 to 32 µg/mL (≈ 44.4 to 142 µM). The “TK+ (average number of lesions)” value in the data set with HSV-1TK+ was 1.0. In addition, the CC50 in [2] is approximately 1000 µg/mL (≈ 4440 µM).

For `Nc1nc2c(ncn2COCCCP(=O)(O)O)c(=O)[nH]1` [Compound 1, 9-(3'-phosphono-1'-propoxymethyl)guanine], the “activity against HSV-1TK+ relative to vidarabine” value in data set [3] is recorded as “comparable to that of vidarabine”. In addition, the “VR (Virus Rating)” value in data set [3] (additional tests against HSV-1TK+) is 0.6. For the same compound, the “activity against murine CMV” value with murine CMV (NJB strain) is recorded as “not active”. In addition, the “inhibition of reverse transcriptase” value in data set [4] amounted to 75%. Moreover, in the data set with HIV, the EC50 is 40 to 50 µg/mL (≈ 132 to 165 µM).

On to `CCOP(=O)(O)CCC(CO)OCn1cnc2c(=O)[nH]c(N)nc21` (stereo not drawn) [Compound 5, 9(3'-ethylphosphono-1'-hydroxymethyl-1'-propyloxymethyl)guanine], for which the “effectiveness against HSV1TK+” value in data set [3] was “mildly effective”. Further, the “No. Plaques” value in [1] (Experiment No. 1, 32 μg/ml) is recorded as 2; in data set [1] (Experiment No. 1, 100 μg/ml), 1; in [1] (Experiment No. 2, 10 μg/ml) it was 7; in data set [1] (Experiment No. 2, 32 μg/ml), 3; in data set [1] (Experiment No. 2, 100 μg/ml), 0. Moreover, the inhibition at 32 µg/mL amounted to 88% in [1] (Human betaherpesvirus 5, AD169, read-out: % Reduct., Experiment No. 1, 32 μg/ml) and 86% in [1] (Human betaherpesvirus 5, AD169, read-out: % Reduct., Experiment No. 2, 32 μg/ml). Moreover, the inhibition at 100 µg/mL in data set [1] (Human betaherpesvirus 5, AD169, read-out: % Reduct., Experiment No. 1, 100 μg/ml) worked out at 94%; in data set [1] (Human betaherpesvirus 5, AD169, read-out: % Reduct., Experiment No. 2, 100 μg/ml) it was 100%. In addition, the inhibition at 10 µg/mL in data set [1] (Human betaherpesvirus 5, AD169, read-out: % Reduct., Experiment No. 2, 10 μg/ml) came to 68%. In addition, the EC50 in data set [1] (Human betaherpesvirus 5, AD169, read-out: Approx. ED50, Experiment No. 1, determined from plot of data) is approximately 0.1 µg/mL (≈ 0.277 µM); in data set [1] (Human betaherpesvirus 5, AD169, read-out: Approx. ED50, Experiment No. 2, determined from plot of data), approximately 3.2 µg/mL (≈ 8.86 µM); in data set [1] (Human betaherpesvirus 5, AD169, read-out: ED50, human CMV) it was 0.1 to 3.2 µg/mL (≈ 0.277 to 8.86 µM). In [1] (overall, Table 5), the “human CMV-inhibitory effect relative to acyclovir” value is reported as “more potent”. Further, the “effectiveness against HSV-2” value in the data set with HSV-2 (Strain E194) is “mildly effective”. For the same compound, the CC50 in data set [2] was approximately 1000 µg/mL (≈ 2770 µM). In the data set with cells, the “cytotoxicity relative to acyclovir” value was “no more cytotoxic”.

As for `Nc1ncnc2c1ncn2[C@@H]1O[C@H](CO)[C@@H](O)[C@@H]1O` [Vidarabine], the EC50 in [3] (MA104, 72 h, read-out: ED50) came out at 10 µg/mL (≈ 37.4 µM). In addition, in [3] (setting [5]), the inhibition at 1 µg/mL is 56%, the inhibition at 3.2 µg/mL is 28%, the inhibition at 10 µg/mL is 69% and the inhibition at 100 µg/mL was determined as 87%. For the same compound, in data set [3] (setting [5]), the inhibition at 320 µg/mL is 100% and the inhibition at 1000 µg/mL was found to be 100%. Moreover, the inhibition at 32 µg/mL in [3] (MA104, read-out: CPE Inhib., Table 2, 32 μg/ml) amounted to 87%. In addition, in data set [3] (setting [6]), the inhibition at 1 µg/mL was determined as 0%, the inhibition at 10 µg/mL amounted to 60%, the inhibition at 320 µg/mL came out at 100% and the inhibition at 1000 µg/mL was 100%. In [3] (setting [7]), the inhibition at 1 µg/mL is 0%, the inhibition at 3.2 µg/mL was determined as 0%, the inhibition at 100 µg/mL was 85% and the inhibition at 320 µg/mL stood at 100%. For the same compound, in data set [3] (setting [7]), the inhibition at 1000 µg/mL came out at 100%. Also, in [3] (Table 2, HSV-1TK+), the “VR (Virus Rating)” value worked out at 1.3. Further, the “VR (Virus Rating)” value in data set [3] (Table 3 Test 1, HSV-1TK+) came out at 0.8. Also, the “VR (Virus Rating)” value in data set [3] (Table 3 Test 2, HSV-1TK+) is on record as 0.7.
